Source: patent US9708270B2, “Substituted spiropiperidinyl compounds useful as GPR120 agonists” (Merck Sharp & Dohme Corp., priority 2012, dated 2017)

Biological target: T1, human GPR120 (Homo sapiens (Human), UniProt Q5NUL3)
Test: FLIPR assay: intracellular calcium in CHO cells expressing human GPR120
Format: cell-based
Conditions: FLIPR calcium assay, CHO cells expressing human GPR120, agonist action
Method: All compounds were tested under the FLIPR assay unless otherwise indicated.
Primers were synthesized in the domains on the opposite sides of the base sequences of the ORFs of the known GPCR and GPR120 in GenBank Accession NOs. […] The base sequences of the primers used are described below. The restriction enzymes, BamHI and EcoRI, recognition sites were introduced for subcloning, respectively.
As samples for PCR, human small intestine Marathon-ready cDNA (CLONTECH, current corporate name: TaKaRa) and cDMA obtained by reverse transcription of mouse BAT-derived RNA were used for human and mouse GPR120 receptor genes, respectively.
Using KOD Plus (TOYOBO) for PCR, 30 cycles of 94° C. for 2 minutes, 94° C. for 15 seconds, 55° C. for 30 seconds and 68° C. for 1 minute were carried out to effect reaction, followed by addition of 0.5 units of ExTaq (TaKaRa) and incubation at 72° C. for 10 minutes to carry out A-addition reaction to terminals. For mouse PCR, 35 cycles were carried out on the condition of a final DMSO concentration of 2%.
Cloning of amplified PCR products was carried out using pCR2.1-TOPO TA cloning kit (Invitrogen). For verification of base sequences, electrophoresis was carried out using BigDye Terminator Cycle Sequencing Ready Reaction Kit Ver.
The GPR120 receptor genes cloned into pCR2.1-TOPO vectors, into which the restriction enzymes, BamHI and EcoRI, recognition sites were introduced, were excised from the vectors by the enzymes and subcloned into the BamHI and EcoRI recognition sites of eukaryotic expression vector EF1/V5-His B (Invitrogen).
Test 2: Production of Expression Cells
Using Lipofectamine 2000 (Invitrogen), cDNA of GPR120 receptor was transfected into CHO/NFAT-BLA cells, and drug-resistant cells were isolated to obtain GPR120 stable expression strains. The GPR120-expressed CHO cells were cultured in DMEM/F12 medium containing 10% fetal bovine serum, 100 units/ml penicillin, 0.1 mg/ml streptomycin sulfate, 250 μg/ml Zeocin, 500 μg/mL Geneticin and 15 mM HEPES.
Test 3: Measurement of Intracellular Calcium Concentration
To the cells was added the test compound diluted with HBSS solution containing 20 mM HEPES and 2.5 mM probenecid. Variations in the intracellular calcium concentration were measured by Fluorescence Imaging Plate Reader (FLIPR; Molecular Devices) to examine the agonist action, and EC50 values were calculated. […]

T1 sequence (Q5NUL3 whole entry): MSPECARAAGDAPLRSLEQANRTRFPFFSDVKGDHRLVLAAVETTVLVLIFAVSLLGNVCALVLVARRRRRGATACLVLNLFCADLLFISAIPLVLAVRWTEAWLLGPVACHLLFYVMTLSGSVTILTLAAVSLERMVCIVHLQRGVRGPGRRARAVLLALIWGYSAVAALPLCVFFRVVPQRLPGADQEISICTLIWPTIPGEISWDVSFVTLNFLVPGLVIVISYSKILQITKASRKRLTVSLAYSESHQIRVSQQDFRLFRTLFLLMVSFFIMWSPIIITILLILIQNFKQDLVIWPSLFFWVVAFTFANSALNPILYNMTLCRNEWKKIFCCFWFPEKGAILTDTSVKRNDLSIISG

Row | SMILES | EC50 [nM]
1 | COc1cc(OC(F)(F)F)cc(N2CCC3(CCC(CC(=O)O)CC3)CC2)c1 [Example 49] | 449
2 | N#Cc1cc(OC(F)(F)F)cc(N2CCC3(CCC(CC(=O)O)CC3)CC2)c1 [Example 51] | 617
3 | CC(C)Oc1cc(Cl)cc(N2CCC3(CCC(CC(=O)O)CC3)CC2)c1 [Example 52] | 641
4 | CSc1cc(N2CCC3(CCC(CC(=O)O)CC3)CC2)cc(C(F)(F)F)c1 [Example 53] | 667
5 | O=C(O)CC1CCC2(CC1)CCN(c1cc(OC(F)(F)F)ccc1O)CC2 [Example 54] | 681
6 | O=C(O)CC1CCC2(CC1)CCN(c1cc(OC3CC3)ccc1Cl)CC2 [Example 55] | 869
7 | CC(C)Oc1cc(OC(F)(F)F)cc(N2CCC3(CCC(CC(=O)O)CC3)CC2)c1 [Example 56] | 1220
8 | N#Cc1ccc(OC2CCC2)cc1N1CCC2(CCC(CC(=O)O)CC2)CC1 [Example 57] | 1330
9 | Cc1ccc(C)c(N2CCC3(CCC(CC(=O)O)CC3)CC2)c1 [Example 58] | 1440
10 | O=C(O)CC1CCC2(CC1)CCN(c1cc(OC(F)(F)F)cc(C(F)(F)F)c1)CC2 [Example 59] | 1490
11 | CC(C)Oc1cc(F)cc(N2CCC3(CCC(CC(=O)O)CC3)CC2)c1 [Example 60] | 1550
12 | O=C(O)CC1CCC2(CC1)CCN(c1cc(OC(F)F)ccc1Cl)CC2 [Example 61] | 1960
13 | O=C(O)CC1CCC2(CC1)CCN(c1cc(OC3CC3)ccc1F)CC2 [Example 62] | 2150
14 | Cc1ccc(F)c(N2CCC3(CCC(CC(=O)O)CC3)CC2)c1 [Example 63] | 2320
15 | COc1cccc(N2CCC3(CCC(CC(=O)O)CC3)CC2)c1 [Example 64] | 2400
16 | Cc1ccc(C#N)cc1N1CCC2(CCC(CC(=O)O)CC2)CC1 [Example 65] | 2500
17 | Cc1cc(F)cc(N2CCC3(CCC(CC(=O)O)CC3)CC2)c1Cl [Example 68] | 2860
18 | CN(C)c1cccc(N2CCC3(CCC(CC(=O)O)CC3)CC2)c1 [Example 69] | 2940
19 | Cc1cccc(N2CCC3(CCC(CC(=O)O)CC3)CC2)c1 [Example 70] | 2950
20 | Cc1cc(C#N)cc(N2CCC3(CCC(CC(=O)O)CC3)CC2)c1 [Example 71] | 2960

Row | SMILES | EC50 [nM]
21 | COc1cc(C)cc(N2CCC3(CCC(CC(=O)O)CC3)CC2)c1 [Example 72] | 3060
22 | O=C(O)CC1CCC2(CC1)CCN(c1cc(C(F)(F)F)ccc1CO)CC2 [Example 73] | 3170
23 | COc1cc(N2CCC3(CCC(CC(=O)O)CC3)CC2)c(F)cn1 [Example 74] | 3420
24 | COCCOc1cc(Cl)cc(N2CCC3(CCC(CC(=O)O)CC3)CC2)c1 [Example 75] | 3630
25 | O=C(O)CC1CCC2(CC1)CCN(c1ccc(-c3ccccc3)cc1)CC2 [Example 77] | 4940
26 | Cc1cccnc1Oc1ccc(C#N)c(N2CCC3(CCC(CC(=O)O)CC3)CC2)c1 [Example 79] | 6570
27 | COCCOc1ccc(Cl)c(N2CCC3(CCC(CC(=O)O)CC3)CC2)c1 [Example 80] | 6970
28 | O=C(O)CCC1CCC2(CC1)CCN(c1cc(OC3CCC3)ccc1F)CC2 [Example 82, 3-(3-(5-Cyclobutoxy-2-fluorophenyl)-3-azaspiro[5.5]undecan-9-yl)propanoic acid] | 1260
29 | O=C(O)CCCC1CCC2(CC1)CCN(c1cc(OC3CCC3)ccc1F)CC2 [Example 83, 4-(3-(5-Cyclobutoxy-2-fluorophenyl)-3-azaspiro[5.5]undecan-9-yl)butanoic acid] | 791
30 | O=C(O)CCC1CCC2(CC1)CCN(c1cc(OC3CCC3)ccc1Cl)CC2 [Example 84] | 1350
31 | O=C(O)CCC1CCC2(CC1)CCN(c1cc(OC(F)(F)F)ccc1Cl)CC2 [Example 85] | 1790
32 | O=C(O)CCCC1CCC2(CC1)CCN(c1cc(OC(F)(F)F)ccc1Cl)CC2 [Example 86] | 2020
33 | O=C(O)CCCC1CCC2(CC1)CCN(c1cc(OC3CCC3)ccc1Cl)CC2 [Example 87] | 2260
34 | CC1CC(CC(=O)O)CCC12CCN(c1cc(OC(F)(F)F)ccc1Cl)CC2 (stereo not shown) [Example 89, 2-(3-(2-Chloro-5-(trifluoromethoxy)phenyl)-7-methyl-3-azaspiro[5.5]undecan-9-yl)acetic acid] | 2490
35 | NCCC1CCC2(CC1)CCN(c1cc(OC(F)(F)F)ccc1Cl)CC2 [Example 90, 2-(3-(2-chloro-5-(trifluoromethoxy)phenyl)-3-azaspiro[5.5]undecan-9-yl)ethanamine] | 5610
36 | O=C(O)CC1CCC2(CCN(c3cccc(OC(F)(F)F)c3)CC2)OC1 (stereo not shown) [Example 95] | 1900
37 | O=C(O)CC1CCC2(CCN(c3cc(OC(F)(F)F)ccc3Cl)CC2)OC1 (stereo not shown) [Example 97] | 1290
38 | O=C(O)C[C@@H]1CCC2(CCN(c3cc(OC4CCC4)ccc3Cl)CC2)OC1 [Example 98] | 1530
39 | O=C(O)C[C@@H]1CCC2(CCN(c3cc(OC4CCC4)ccc3F)CC2)OC1 [Example 100] | 4280
40 | COc1cc(Cl)cc(N2CCC3(CC2)CC(CC(=O)O)CO3)c1 (stereo not shown) [Example 102] | 8100

Biological target: T1, human GPR120
Test: IP1 assay (GPR120 assay adapted from Bergsdorf et al.)
Format: cell-based
Conditions: not given
Text: The EC50 values for the exemplified compounds are provided in the following examples and in the following tables. • IP1 Assay • IP1 assay results were obtained adapting the GPR120 assay described in C. Bergsdorf, et al., Assay Drug Dev. Technol., 2008, 6(1), 39-53. General Schemes

Row | SMILES | EC50 [nM]
41 | O=C(O)CCC1CCC2(CCN(c3cc(OC4CCC4)ccc3Cl)CC2)C1 (stereo not shown) [Example 105, 3-(8-(2-chloro-5-cyclobutoxyphenyl)-8-azaspiro[4.5]decan-2-yl)propanoic acid] | 44.8
42 | N#Cc1ccc(OC(F)(F)F)cc1N1CCC2(CCC(CCC(=O)O)C2)CC1 (stereo not shown) [Example 106] | 220
43 | COc1cc(F)c(N2CCC3(CCC(CCC(=O)O)C3)CC2)cc1OC1CCC1 (stereo not shown) [Example 107] | 202
